Test results taken from patent publication US10407441B2, “Compositions and methods for treating neoplasia, inflammatory disease and other disorders” (Dana-Farber Cancer Institute, Inc., priority 2010, dated 2019).
Where two headings read alike, the source gives them in different places.

Legend:
797 cells = experiment: Cell proliferation assay, 797 NMC cell line; type: cell-based; conditions: Homo sapiens, read-out: Cell-assay IC50 797 cells
Protocol: Curve fit was calculated by logistical regression.
Cells were seeded into white, 384-well microtiter plates (Nunc) at 500 cells per well in a total volume of 50 μL media. […] Compounds were delivered to microtiter assay plates by robotic pin transfer (PerkinElmer JANUS equipped with a V&P Scientific 100 nL pin tool). Following a 48 h incubation at 37° C., cells were lysed and wells were assessed for total ATP content using a commercial proliferation assay (Cell TiterGlo; Promega). Replicate measurements were analyzed with respect to dose and estimates of IC50 were calculated by logistic regression (GraphPad Prism).

10326 cells = experiment: Cell proliferation assay, 10326 patient-derived cell line; type: cell-based; conditions: Homo sapiens, read-out: Cell-assay IC50 10326 cells
Protocol: Curve fit was calculated by logistical regression (FIG. 56C). […] Curve fit was calculated by logistical regression.

BRD4(1) = BRD4(1) (Homo sapiens (Human), UniProt O60885); experiment: Alpha-assay acetyl-histone binding, BRD4 site 1
Protocol: The binding activity of lead compounds with the BRD4 site 1 was determined by Alpha-assay with a 12-point dose response curve (FIG. 56A).
Assays were performed as described previously^8 with minor modifications from the manufacturer's protocol (PerkinElmer, USA). All reagents were diluted in 50 mM HEPES, 100 mM NaCl, 0.1% BSA, pH 7.4 supplemented with 0.05% CHAPS and allowed to equilibrate to room temperature prior to addition to plates. […] Plates were sealed and incubated for a further 30 minutes, before the addition of 4 μl of streptavidin-coated donor beads (25 μg/ml) and 4 μl nickel chelate acceptor beads (25 μg/ml) under low light conditions. Plates were foil-sealed to protect from light, incubated at room temperature for 60 minutes and read on a PHERAstar FS plate reader (BMG Labtech, Germany) using an AlphaScreen 680 excitation/570 emission filter set. IC50 values were calculated in Prism 5 (GraphPad Software, USA) after normalization against corresponding DMSO controls and are given as the final concentration of compound in the 20 μl reaction volume.

BRD4(2) = BRD4(2) (Homo sapiens (Human), UniProt O60885); experiment: Alpha-assay acetyl-histone binding, BRD4 site 2
NMC 797 xenografts = experiment: NMC 797 xenograft efficacy study; type: in vivo, mouse
Text: Animals were followed daily for clinical symptoms.

BRD3-NUT cells = experiment: BRD3-NUT murine xenograft model; type: in vivo, mouse; conditions: 50 mg/kg IP 7 days/week
Text: Mice were implanted subcutaneously with BRD3-NUT cells. Tumor measurement data were collected weekly. […] On day 24 post-injection, five mice from each group were euthanized and tumor samples were collected to be sent for lab analysis. Throughout the remainder of the study tumor samples were collected as mice were sacrificed. For all samples one half of the tumor was fixed in 10% formalin and the other half was flash frozen on dry ice. Treatment ended on day 32. Tumor volume and weights were collected weekly until all mice either became moribund or tumors reached 2 cm in any dimension. […] Upon cessation of therapy, tumor growth resumed. Tumor volume differences were significant at all points (p=7.65274E-09 at Day 24).

GFP-BRD4 = GFP-BRD4 (Homo sapiens (Human), UniProt O60885); experiment: FRAP in U2OS cells transfected with GFP-BRD4; type: cell-based
Protocol: (§4) FRAP studies were performed on U2OS cells as previously described^3,20. In brief, U2OS cells were transfected (lipofectamine; Invitrogen) with mammalian overexpression constructs encoding GFP chimera with BRD4, NUT and BRD4-NUT. A 5 μm^2 nuclear region was bleached with high laser intensity in one cell within each field, and measured for recovery with low laser intensity and a 150 μm pinhole. Images of identical fields were acquired using a Nikon C1 Plus confocal microscope equipped with a 37° C. heated chamber and FRAP modules over 90 seconds. Average intensities of the bleached region were measured over time and using MetaMorph v7, and normalized to an independent region of interest before bleaching.

[1] = tested on: BRD4-dependent human carcinoma cells; experiment: Annexin-V / propidium iodide flow cytometry (apoptosis); type: cell-based; conditions: 500 nM, 24 or 48 hours
Protocol: (§1) Thus, early and late apoptosis was assessed with annexin-V and propidium iodide staining by flow cytometry.
Trypsinized cells were mixed 1:1 on ice with Annexin-V/propidium iodide buffer (10 mM HEPES pH 7.4, 140 mM NaCl, 2.5 mM CaCl2) containing Annexin V-FITC (BD Pharmingen, 1:500) and propidium iodide (Invitrogen, 1:1000). Samples were immediately analyzed on a BD FACS Canto II. Visualizations and analyses of apoptotic fractions were generated using FlowJo flow cytometry analysis software (Tree Star, Inc.).

TT = experiment: Cell proliferation, TT squamous carcinoma cell line; type: cell-based, human; conditions: 250 nM, 72 hours
Protocol: (§2) Data is presented as mean±s.d. (n=3). IC50 values were calculated by logistic regression.

TE10 [2] = experiment: Cell proliferation, TE10 squamous carcinoma cell line; type: cell-based, human; conditions: 250 nM, 72 hours
Protocol: as §2

GFP-BRD4-NUT = GFP-BRD4-NUT (Homo sapiens (Human), UniProt O60885+Q86Y26); conditions: 500 nM
Protocol: as §4

GFP-NUT = GFP-NUT (Homo sapiens (Human), UniProt Q86Y26); experiment: FRAP in cells transfected with GFP-NUT; conditions: 500 nM
Chain of GFP-NUT (Q86Y26 whole entry, looked up): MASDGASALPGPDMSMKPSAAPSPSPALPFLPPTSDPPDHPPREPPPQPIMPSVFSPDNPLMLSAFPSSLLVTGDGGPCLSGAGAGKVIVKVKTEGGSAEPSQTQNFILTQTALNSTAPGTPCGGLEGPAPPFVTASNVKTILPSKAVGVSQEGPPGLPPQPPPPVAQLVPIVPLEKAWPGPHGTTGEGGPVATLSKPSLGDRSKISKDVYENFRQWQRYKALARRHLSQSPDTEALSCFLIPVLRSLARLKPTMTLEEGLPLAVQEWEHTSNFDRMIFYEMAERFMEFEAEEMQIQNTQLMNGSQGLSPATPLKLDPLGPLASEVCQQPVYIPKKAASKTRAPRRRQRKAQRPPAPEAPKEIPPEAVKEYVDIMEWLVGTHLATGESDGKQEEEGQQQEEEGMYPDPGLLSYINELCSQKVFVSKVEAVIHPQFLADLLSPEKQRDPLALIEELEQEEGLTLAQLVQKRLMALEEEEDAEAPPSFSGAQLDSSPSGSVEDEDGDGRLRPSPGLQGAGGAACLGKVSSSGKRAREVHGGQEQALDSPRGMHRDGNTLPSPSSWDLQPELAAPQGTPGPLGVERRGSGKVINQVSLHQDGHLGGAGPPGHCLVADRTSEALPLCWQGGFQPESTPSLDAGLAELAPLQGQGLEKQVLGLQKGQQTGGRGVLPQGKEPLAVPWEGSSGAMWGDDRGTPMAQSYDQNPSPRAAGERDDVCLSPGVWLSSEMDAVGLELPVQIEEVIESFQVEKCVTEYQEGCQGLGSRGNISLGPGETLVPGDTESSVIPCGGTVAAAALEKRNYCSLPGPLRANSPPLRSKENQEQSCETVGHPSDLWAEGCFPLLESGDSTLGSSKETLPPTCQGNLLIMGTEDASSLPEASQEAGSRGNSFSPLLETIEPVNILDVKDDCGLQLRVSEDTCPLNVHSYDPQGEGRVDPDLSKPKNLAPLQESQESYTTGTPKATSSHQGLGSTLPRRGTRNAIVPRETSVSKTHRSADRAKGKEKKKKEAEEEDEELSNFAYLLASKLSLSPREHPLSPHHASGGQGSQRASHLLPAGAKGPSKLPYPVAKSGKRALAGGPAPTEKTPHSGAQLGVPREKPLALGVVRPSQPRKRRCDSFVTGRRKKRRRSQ
Protocol: as §4

cellular receptors = experiment: Off-target effects on cellular receptors
TE10 [3] = experiment: Differentiation immunohistochemistry in non-BRD4-dependent squamous carcinoma cell line
Protocol: Media was then removed and chambers were washed with cold PBS. Cells were then fixed in 4% formaldehyde for 20 minutes at 4° C., washed with PBS and transferred to the Dana-Farber/Harvard Cancer Center (DF/HCC) Specialized Histopathology Services Core at Brigham and Women's Hospital for staining, as described below. […] Cells were then trypsinized and cell pellets were formed by centrifugation at 2,000 rpm for 10 minutes, stabilized with ½ volume of HistoGel (Richard-Allen Scientific) and 10% bovine serum albumin. Cell pellets were washed with PBS and fixed in 4% formaldehyde for 20 minutes at 4° C. The cells were then washed with PBS and transferred to the DF/HCC Core Laboratory at the Brigham and Women's Hospital for staining, as described below. […] All fixed material was embedded, sectioned and stained by the DF/HCC Core Laboratory at Brigham and Women's Hospital, using established optimized protocols. Images were obtained using an Olympus BX40 microscope (Olympus Imaging America, Center Valley, Pa.) and a Micropublisher 3.3 RTV color camera (QImaging, Surrey, BC).

Per403 cells = experiment: cells; conditions: Homo sapiens, PER-403, 72 h, read-out: Per403 IC50 (inhibition of cell growth)
Protocol: as §1

NMC 11060 cells = experiment: cells; conditions: Homo sapiens, NMC 11060, 72 h, read-out: cellular viability IC50
Protocol: Data is presented as mean±s.d. (n=3). IC50 values were calculated by logistic regression. […] (n=3).
(§3) In parallel with these studies, a patient with widely metastatic BRD4-NUT positive NMC arising from the mediastinum was identified. With the goal of developing a more clinically-relevant disease model, short-term cultures were established using discarded clinical material obtained from pleural fluid draining from a palliative chest tube in the patient.

NMC 11060 xenografts = experiment: Patient-derived NMC 11060 primary xenograft, PET imaging; type: in vivo, mouse; conditions: 50 mg kg^-1 daily for four days
Text: as §3

NMC 797 and Per403 cells = experiment: Differentiation and proliferation immunohistochemistry in NMC cells; type: cell-based, human; conditions: BRD4-dependent NMC cells

In the case of Cc1sc2c(c1C)C(c1ccc(Cl)cc1)=NC(CC(=O)NCCN1CCOCC1)c1nnc(C)n1-2 (stereo not drawn) [JQ33], the IC50 (797 cells; proliferation after 72 hours) is reported as 0.00297 µM and the IC50 (10326 cells; proliferation after 72 hours) is reported as 8 nM.

In the case of Cc1sc2c(c1C)C(c1ccc(Cl)cc1)=N[C@@H](CC(=O)NCCc1cnc[nH]1)c1nnc(C)n1-2 [JQ8], the “binding activity with the BRD4 site 1” value (BRD4(1)) is reported as “excellent binding activity”, the “binding activity with the BRD4 site 2” value (BRD4(2)) is reported as “excellent binding activity” and the IC50 (797 cells; proliferation after 72 hours) is reported as 0.6 µM. It also gave an IC50 (10326 cells; proliferation after 72 hours) of 2.8 nM.

For Cc1sc2c(c1C)C(c1ccc(Cl)cc1)=N[C@@H](CC(=O)N/N=C/c1ncc[nH]1)c1nnc(C)n1-2 [JQ6], the “binding activity with the BRD4 site 1” value (BRD4(1)) was “excellent binding activity”, the “binding activity with the BRD4 site 2” value (BRD4(2)) was “excellent binding activity” and the IC50 (797 cells; proliferation after 72 hours) was 0.001 µM. The IC50 (10326 cells; proliferation after 72 hours) was 0.051 nM.

Cc1sc2c(c1C)C(c1ccc(Cl)cc1)=N[C@H](CC(=O)OC(C)(C)C)c1nnc(C)n1-2 [(R)-JQ1] showed an IC50 (797 cells; 72 h) of 1540 µM and an IC50 (10326 cells; 72 h) of 11800 nM.

Compound Cc1sc2c(c1C)C(c1ccc(Cl)cc1)=N[C@@H](CC(=O)OC(C)(C)C)c1nnc(C)n1-2 [(S)-JQ1, (S)-tert-Butyl 2-(4-(4-chlorophenyl)-2,3,9-trimethyl-6H-thieno[3,2-f][1,2,4]triazolo[4,3-a][1,4]diazepin-6-yl)acetate] has an IC50 (797 cells; 72 h) of 0.0056 µM and an IC50 (10326 cells; 72 h) of 1.5 nM.

With Cc1sc2c(c1C)C(c1ccc(Cl)cc1)=NC(CC(=O)OC(C)(C)C)c1nnc(C)n1-2 (racemic) [JQ1, tert-Butyl 2-(4-(4-chlorophenyl)-2,3,9-trimethyl-6H-thieno[3,2-f][1,2,4]triazolo[4,3-a][1,4]diazepin-6-yl)acetate] the “tolerability (toxicity, weight loss)” value (NMC 797 xenografts; 50 mg kg^-1 daily IP, 14 days) was “well tolerated”, the “tumor growth (tumor volume by caliper)” value (NMC 797 xenografts; 50 mg kg^-1 daily IP, 14 days) was “statistically-significant reduction in tumor growth” and the “FDG uptake by PET imaging” value (NMC 797 xenografts; 50 mg kg^-1 daily IP, four days) was “marked response on FDG uptake”. The “keratin expression by quantitative IHC” value (NMC 797 xenografts; excised tumor specimens) was “strong (3+) keratin expression”, the body weight (BRD3-NUT cells) was “mild weight loss” and the tumor volume (BRD3-NUT cells) was “tumor regression”. The “fluorescence recovery of GFP-BRD4” value (GFP-BRD4; 500 nM) was “immediate”, the “apoptosis (annexin-V and propidium iodide staining)” value [1] was “induced immediate and progressive apoptosis” and the “effects on cell proliferation” value (TT) was “Minimal effects”. The “effects on cell proliferation” value (TE10 [2]) was “Minimal effects”, the “time-to-recovery of fluorescence intensity, GFP-BRD4-NUT” value (GFP-BRD4-NUT) was “markedly accelerated” and the “redistribution of GFP-NUT” value (GFP-NUT) was “no effect”. For the same compound, the “off-target effects on cellular receptors” value (cellular receptors) was “few off-target effects” and the differentiation effects (TE10 [3]) was “fails to exhibit differentiation effects”.

With Cc1sc2c(c1C)C(c1ccc(Cl)cc1)=N[C@@H](CC(=O)OC(C)(C)C)c1nnc(C)n1-2 (single isomer, unassigned) [(+)-JQ1] the IC50 (Per403 cells) was 60 nM, the IC50 (NMC 11060 cells) was 4 nM and the “keratin expression by quantitative IHC” value (NMC 11060 xenografts) was “induction of keratin expression”. For the same compound, the “fluorescence recovery of GFP-BRD4” value (GFP-BRD4; 250 nM, 5 h) was “enhanced recovery” and the “differentiation and growth arrest phenotypes” value (NMC 797 and Per403 cells) was “prompted”.

For Cc1sc2c(c1C)C(c1ccc(Cl)cc1)=N[C@@H](CC(=O)NCCN1CCN(C)CC1)c1nnc(C)n1-2 [JQ13], the “binding activity with the BRD4 site 1” value (BRD4(1)) was “excellent binding activity” and the “binding activity with the BRD4 site 2” value (BRD4(2)) was “excellent binding activity”.

For Cc1sc2c(c1C)C(c1ccc(Cl)cc1)=NC(CC(=O)NCCCN1CCN(C)CC1)c1nnc(C)n1-2 (stereo not drawn) [JQ35], the “binding activity with the BRD4 site 1” value (BRD4(1)) was “excellent binding activity”, the “binding activity with the BRD4 site 2” value (BRD4(2)) was “excellent binding activity” and the IC50 (797 cells; proliferation after 72 hours) was 0.00609 µM. The IC50 (10326 cells; proliferation after 72 hours) was 3 nM.
